From patent US20240285670A1, “THERAPEUTIC TREATMENT OF TUMORS BY BLOCKING THE HEME SYNTHESIS-EXPORT AXIS” (Università degli Studi di Torino, priority 2021, published 2024)

What was measured:
SKCO1 cells = assay: Flow cytometric analysis of apoptosis in SKCO1 cells; format: cell-based, human; details: FLVCR1a-silenced vs scramble shRNA, synchronized SKCO1 cells
From the text: (A) Proliferation of Caco2 cells assessed by crystal violet staining at the indicated days; bar=1000 μm. […] Staining quantification is reported in the bar graph as percentage of crystal violet stained area. Data represent mean±SEM, n=4. For statistical analyses, a two-way analysis of variance was used, followed by the Bonferroni correction for multiple group comparisons; *=p<0.05, ***=p<0.001. (B) Caco2 cells viability the day of plating (day 0) and three days after plaiting (day 3). The measure is considered a readout of cell proliferation. […] Data represent mean±SEM, n=3 wells. For statistical analyses, a two-way analysis of variance was used, followed by the Bonferroni correction for multiple group comparisons; *=p<0.05, **=p<0.01. (C, D, E) Representative flow cytometric analyses of apoptosis in synchronized Caco2 (C), SKCO1 (D) and C80 (E) cells. […] Data represent mean±SEM, n=4 wells pooled from two independent experiments. For statistical analyses, an unpaired Student's t-test was used; *=p<0.05, **=p<0.01. […]
Stained cells were analyzed using a FACSCanto II cytofluorimeter and processed with BD FACSDIVA Software v8.1 (BD Biosciences, Milan, IT; http://www.bdbiosciences.com/instruments/software/facsdiva/index.jsp/ RRID:SCR_001456), acquiring at least 10,000 events per sample or 25,000 cells per sample for cell cycle experiments.

Caco2 cells = assay: TCA cycle flux in Caco2 cells; format: cell-based, human; details: FLVCR1a-silenced vs scramble shRNA Caco2 cells
From the text: TCA cycle flux is reported in the centre of the figure and expressed as pmol CO2/h/mg protein. Data represent mean±SEM, n=3. For statistical analyses, an unpaired Student's t-test was used. **=p<0.01. Moreover, TCA cycle enzymes activities are reported in boxes and expressed as mU/mg mitochondrial proteins. Data represent mean±SEM, n=3. For statistical analyses, an unpaired Student's t-test was used; *=p<0.05, ***=p<0.001. […] Results are expressed as pmol CO2/h/mg protein. Data represent mean±SEM, n=3. For statistical analyses, an unpaired Student's t-test was used; *=p<0.05, **=p<0.01.
(A) TCA cycle flux in Caco2 cells expressing a scramble shRNA untreated or treated with 25 μM hemin for 2 hours. Moreover, the TCA cycle flux of untreated FLVCR1a-silenced Caco2 cells is reported for comparison. Results are expressed as pmol CO2/h/mg protein. Data represent mean±SEM, n=3. […] Results are expressed as pmol CO2/h/mg protein. […] Results are expressed as pmol CO2/h/mg protein. […]
The glucose flux through TCA cycle was measured by radiolabeling cells with 2 μCi/ml [6-^14C]-glucose (55 mCi/mmol; PerkinElmer, Waltham, MA, USA, catalog n° NEC045X). […] The amount of glucose transformed into CO2 through the TCA cycle was calculated as described (Riganti et al., 2004) and expressed as pmoles CO2/h/mg cell proteins.

“FLVCR1a shRNA: shRNA specifically down-regulating FLVCR1a without targeting FLVCR1b; pLKO.1 lentiviral clone TRCN0000059599, antisense SEQ ID No.: 2 (antisense TTGCTAATGATGCTGTACTGG; sense CCAGTACAGCATCATTAGCAA)” was tested, and the apoptosis (SKCO1 cells) was “increased apoptosis” and the “total flux of the TCA cycle” value (Caco2 cells) was “significantly up-regulated”.
